Reference: patent US20070021434A1, “NON-NUCLEOSIDE ANTI-HEPACIVIRUS AGENTS AND USES THEREOF” (Migenix Inc., priority 2005, published 2007)

Biological target: HCV RdRp (NS5B) (UniProt P26663)
Type: biochemical, hepatitis C virus

Chain of HCV RdRp (NS5B) (P26663 whole entry, looked up): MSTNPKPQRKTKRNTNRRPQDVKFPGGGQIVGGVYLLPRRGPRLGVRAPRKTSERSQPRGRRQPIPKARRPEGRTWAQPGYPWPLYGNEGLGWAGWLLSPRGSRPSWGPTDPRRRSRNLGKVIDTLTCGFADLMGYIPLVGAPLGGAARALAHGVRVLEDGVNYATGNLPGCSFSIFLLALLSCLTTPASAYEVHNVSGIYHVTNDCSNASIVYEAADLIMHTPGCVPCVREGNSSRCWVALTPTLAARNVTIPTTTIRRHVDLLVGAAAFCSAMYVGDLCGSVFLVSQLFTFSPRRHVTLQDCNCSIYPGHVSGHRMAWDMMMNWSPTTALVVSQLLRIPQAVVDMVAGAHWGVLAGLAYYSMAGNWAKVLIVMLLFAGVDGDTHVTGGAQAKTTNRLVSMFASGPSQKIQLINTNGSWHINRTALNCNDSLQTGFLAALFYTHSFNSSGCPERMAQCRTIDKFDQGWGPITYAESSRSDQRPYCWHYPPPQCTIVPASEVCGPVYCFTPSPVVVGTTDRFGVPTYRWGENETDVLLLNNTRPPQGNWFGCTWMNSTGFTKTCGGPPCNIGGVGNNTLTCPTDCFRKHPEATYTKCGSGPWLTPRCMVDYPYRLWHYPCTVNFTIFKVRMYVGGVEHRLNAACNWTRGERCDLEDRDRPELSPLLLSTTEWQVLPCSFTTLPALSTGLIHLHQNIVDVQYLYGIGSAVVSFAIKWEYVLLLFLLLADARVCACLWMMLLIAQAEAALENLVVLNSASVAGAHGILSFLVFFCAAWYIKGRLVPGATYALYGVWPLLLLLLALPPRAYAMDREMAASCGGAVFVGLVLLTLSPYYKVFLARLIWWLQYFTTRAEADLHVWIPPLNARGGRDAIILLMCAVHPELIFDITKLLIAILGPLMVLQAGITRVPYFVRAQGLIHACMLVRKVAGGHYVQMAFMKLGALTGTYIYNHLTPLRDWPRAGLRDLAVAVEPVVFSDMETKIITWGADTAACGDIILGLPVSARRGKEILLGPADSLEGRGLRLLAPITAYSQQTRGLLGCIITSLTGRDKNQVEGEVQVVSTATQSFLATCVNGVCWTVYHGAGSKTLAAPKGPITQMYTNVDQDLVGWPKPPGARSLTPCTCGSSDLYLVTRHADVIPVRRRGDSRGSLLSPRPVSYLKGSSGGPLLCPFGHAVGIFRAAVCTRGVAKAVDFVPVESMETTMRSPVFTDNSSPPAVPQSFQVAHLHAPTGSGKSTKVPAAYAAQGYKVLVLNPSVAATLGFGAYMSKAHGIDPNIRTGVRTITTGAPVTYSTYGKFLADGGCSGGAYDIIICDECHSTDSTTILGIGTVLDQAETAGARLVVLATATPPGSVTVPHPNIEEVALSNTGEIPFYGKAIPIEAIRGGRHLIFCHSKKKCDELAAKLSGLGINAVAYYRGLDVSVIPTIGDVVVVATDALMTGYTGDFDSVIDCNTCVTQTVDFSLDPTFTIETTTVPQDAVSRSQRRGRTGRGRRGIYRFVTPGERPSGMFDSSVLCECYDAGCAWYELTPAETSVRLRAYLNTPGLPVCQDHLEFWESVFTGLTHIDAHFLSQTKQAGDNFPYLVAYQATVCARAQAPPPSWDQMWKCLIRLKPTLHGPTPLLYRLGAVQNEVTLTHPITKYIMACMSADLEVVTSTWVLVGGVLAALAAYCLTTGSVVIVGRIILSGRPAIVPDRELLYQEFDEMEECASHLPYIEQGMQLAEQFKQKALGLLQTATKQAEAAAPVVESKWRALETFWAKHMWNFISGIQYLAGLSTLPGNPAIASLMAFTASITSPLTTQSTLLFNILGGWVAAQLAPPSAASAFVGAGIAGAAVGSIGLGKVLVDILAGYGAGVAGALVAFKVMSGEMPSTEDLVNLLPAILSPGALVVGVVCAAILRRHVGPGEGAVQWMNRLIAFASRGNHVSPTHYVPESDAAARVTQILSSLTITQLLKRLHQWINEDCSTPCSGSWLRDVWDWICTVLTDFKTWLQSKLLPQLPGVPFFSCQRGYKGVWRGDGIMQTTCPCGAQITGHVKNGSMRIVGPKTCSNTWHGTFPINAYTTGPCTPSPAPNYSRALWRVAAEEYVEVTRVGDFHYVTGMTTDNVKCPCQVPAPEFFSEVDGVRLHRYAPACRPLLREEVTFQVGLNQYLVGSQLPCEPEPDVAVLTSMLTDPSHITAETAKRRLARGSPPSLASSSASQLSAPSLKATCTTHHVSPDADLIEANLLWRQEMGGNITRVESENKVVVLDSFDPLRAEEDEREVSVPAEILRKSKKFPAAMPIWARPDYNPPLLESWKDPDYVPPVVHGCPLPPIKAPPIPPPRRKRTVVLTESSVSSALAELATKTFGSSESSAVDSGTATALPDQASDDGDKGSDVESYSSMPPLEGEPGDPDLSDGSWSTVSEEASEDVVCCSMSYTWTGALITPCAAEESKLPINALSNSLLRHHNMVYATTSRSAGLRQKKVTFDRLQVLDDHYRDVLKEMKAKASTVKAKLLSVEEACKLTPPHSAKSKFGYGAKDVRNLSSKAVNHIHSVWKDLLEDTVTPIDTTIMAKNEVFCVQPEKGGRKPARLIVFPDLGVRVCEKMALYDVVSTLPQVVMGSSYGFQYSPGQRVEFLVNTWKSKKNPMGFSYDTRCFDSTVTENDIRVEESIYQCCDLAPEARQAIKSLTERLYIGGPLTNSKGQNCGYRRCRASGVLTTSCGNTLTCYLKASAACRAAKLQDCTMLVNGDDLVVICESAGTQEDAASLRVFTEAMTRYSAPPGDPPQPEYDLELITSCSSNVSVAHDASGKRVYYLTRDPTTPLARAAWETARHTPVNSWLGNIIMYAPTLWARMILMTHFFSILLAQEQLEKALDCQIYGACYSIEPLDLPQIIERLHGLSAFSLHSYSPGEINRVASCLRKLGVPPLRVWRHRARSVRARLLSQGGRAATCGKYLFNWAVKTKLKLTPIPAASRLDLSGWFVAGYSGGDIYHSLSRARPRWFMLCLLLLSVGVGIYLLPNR

Compound | IC50 [µM]
CC(C)(C)c1ccc(NC(=O)[C@H](CCCCN)NC(=O)OCC2c3ccccc3-c3ccccc32)cc1 [Compound 105, (S)-[5-AMINO-1-(4-TERT-BUTYL-PHENYLCARBAMOYL)-PENTYL]-CARBAMIC ACID 9H-FLUOREN-9-YLMETHYL ESTER] | 10 to 50
Cc1ccc(NC(=O)C(CCNC(=O)CCN)NC(=O)OCC2c3ccccc3-c3ccccc32)cc1 [Compound 179, (S)-[3-(3-AMINO-PROPIONYLAMINO)-1-P-TOLYLCARBAMOYL-PROPYL]-CARBAMIC ACID 9H-FLUOREN-9-YLMETHYL ESTER] | 10 to 50
NCCC[C@H](NC(=O)OCC1c2ccccc2-c2ccccc21)C(=O)Nc1ccc(C2CCCCC2)cc1 [Compound 200, (S)-[4-AMINO-1-(4-CYCLOHEXYL-PHENYLCARBAMOYL)-BUTYL]-CARBAMIC ACID 9H-FLUOREN-9-YLMETHYL ESTER] | < 10
C=CCOC(=O)NCCCC[C@H](N)C(=O)Nc1ccc(CN(C(=O)c2ccco2)C2CCCCC2)cc1 [Compound 5, (S)-[5-AMINO-5-(4-{[CYCLOHEXYL-(FURAN-2-CARBONYL)-AMINO]-METHYL}-PHENYLCARBAMOYL)-PENTYL]-CARBAMIC ACID ALLYL ESTER] | > 50
Cc1ccc(NC(=O)C(CCCCN)NS(=O)(=O)c2ccc(S(=O)(=O)c3ccccc3)s2)cc1 [Compound 389, (S)-6-AMINO-2-(5-BENZENESULFONYL-THIOPHENE-2-SULFONYLAMINO)-HEXANOIC ACID P-TOLYLAMIDE] | > 50
Cc1ccc(NC(=O)C(CCCCN)NC(=O)Nc2ccc(OC(C)c3ccccc3)cc2)cc1 [Compound 277, (2S)-6-AMINO-2-{3-[4-(1-PHENYL-ETHOXY)-PHENYL]-UREIDO}-HEXANOIC ACID P-TOLYLAMIDE] | > 50
C[C@H](N)C(=O)Nc1ccc(CN(C(=O)c2ccco2)C2CCCCC2)cc1 [Compound 12, (S)-FURAN-2-CARBOXYLIC ACID [4-(2-AMINO-PROPIONYLAMINO)-BENZYL]-CYCLOHEXYL-AMIDE] | > 50
CCCCOc1ccc(NC(=O)N[C@@H](CCCCN)C(=O)Nc2ccc(C)cc2)cc1 [Compound 244, (S)-6-AMINO-2-[3-(4-BUTOXY-PHENYL)-UREIDO]-HEXANOIC ACID P-TOLYLAMIDE] | > 50
Cc1ccc(NC(=O)[C@H](CCCCN)NC(=O)Nc2ccc(F)cc2)cc1 [Compound 43, (S)-6-AMINO-2-[3-(4-FLUORO-PHENYL)-UREIDO]-HEXANOIC ACID P-TOLYLAMIDE] | > 50
Cc1ccc(NC(=O)[C@H](CCCCN)NC(=O)CNCc2cccc(F)c2)cc1 [Compound 345, (S)-6-AMINO-2-[2-(3-FLUORO-BENZYLAMINO)-ACETYLAMINO]-HEXANOIC ACID P-TOLYLAMIDE] | > 50
Cc1ccc(NC(=O)[C@H](CCCCN)NC(=O)Nc2ccc(NCc3ccc(F)cc3)cc2)cc1 [Compound 225, (S)-6-AMINO-2-{3-[4-(4-FLUORO-BENZYLAMINO)-PHENYL]-UREIDO}-HEXANOIC ACID P-TOLYLAMIDE] | > 50
Cc1ccc(NC(=O)C(CCC(=O)O)NC(=O)OCC2c3ccccc3-c3ccccc32)cc1 [Compound 373, (R)-4-(9H-FLUOREN-9-YLMETHOXYCARBONYLAMINO)-4-P-TOLYLCARBAMOYL-BUTYRIC ACID] | > 50
Cc1cc2cc(NC(=O)[C@H](CCNC(=O)CN)NC(=O)Nc3ccc(OCc4ccccc4)cc3)ccc2[nH]1 [Compound 241, (S)-4-(2-AMINO-ACETYLAMINO)-2-[3-(4-BENZYLOXY-PHENYL)-UREIDO]-N-(2-METHYL-1H-INDOL-5-YL)-BUTYRAMIDE] | < 10
Cc1ccc(NC(=O)C(CCCC(=O)O)NC(=O)OCC2c3ccccc3-c3ccccc32)cc1 [Compound 402, (S)-5-(9H-FLUOREN-9-YLMETHOXYCARBONYLAMINO)-5-P-TOLYLCARBAMOYL-PENTANOIC ACID] | > 50
Cc1ccc(NC(=O)CC2CNCCN2C(=O)OCC2c3ccccc3-c3ccccc32)cc1 (stereo not drawn) [Compound 197, 2-(P-TOLYLCARBAMOYL-METHYL)-PIPERAZINE-1-CARBOXYLIC ACID 9H-FLUOREN-9-YLMETHYL ESTER] | > 50
Cc1ccc(NC(=O)[C@H](CCCN)NC(=O)Nc2ccc(OCc3ccccc3)cc2)cc1 [Compound 189, (S)-5-AMINO-2-[3-(4-BENZYLOXY-PHENYL)-UREIDO]-PENTANOIC ACID P-TOLYLAMIDE] | > 50
NCCCC[C@H](NC(=O)c1cccc2ccccc12)C(=O)Nc1ccc(CN(C(=O)c2ccco2)C2CCCCC2)cc1 [Compound 24, (S)-FURAN-2-CARBOXYLIC ACID (4-{6-AMINO-2-[(NAPHTHALENE-1-CARBONYL)-AMINO]-HEXANOYLAMINO}-BENZYL)-CYCLOHEXYL-AMIDE] | 10 to 50
Cc1ccc(NC(=O)C(Cc2ccc(O)cc2)NC(=O)OCC2c3ccccc3-c3ccccc32)cc1 [Compound 380, (R)-[2-(4-HYDROXY-PHENYL)-1-P-TOLYLCARBAMOYL-ETHYL]-CARBAMIC ACID 9H-FLUOREN-9-YLMETHYL ESTER] | > 50
Cc1ccc(NC(=O)CN(CCCCN)C(=O)Nc2ccc(OCc3ccccc3)cc2)cc1 [Compound 278, 2-[1-(4-AMINO-BUTYL)-3-(4-BENZYLOXY-PHENYL)-UREIDO]-N-P-TOLYL-ACETAMIDE] | 10 to 50
NCCCC[C@H](NC(=O)Nc1ccc(OCc2ccccc2)cc1)C(=O)Nc1cccc2cc[nH]c12 [Compound 307, (S)-6-AMINO-2-[3-(4-BENZYLOXY-PHENYL)-UREIDO]-HEXANOIC ACID (1H-INDOL-7-YL)-AMIDE] | 10 to 50
Cc1ccc(NC(=O)C(CCCCN)NC(=O)CNCc2ccccc2C(F)(F)F)cc1 [Compound 350, (S)-6-AMINO-2-[2-(2-TRIFLUOROMETHYL-BENZYLAMINO)-ACETYLAMINO]-HEXANOIC ACID P-TOLYLAMIDE] | > 50
Cc1ccc(NC(=O)C(CCCCN)NC(=O)C2c3ccccc3-c3ccccc32)cc1 [Compound 52, (S)-9H-FLUORENE-9-CARBOXYLIC ACID (5-AMINO-1-P-TOLYLCARBAMOYL-PENTYL)-AMIDE] | > 50
Cc1ccc(NC(=O)[C@H](CCCCN)NC(=O)Nc2ccc(OCc3ccccc3)c(Cl)c2)cc1 [Compound 253, (S)-6-AMINO-2-[3-(4-BENZYLOXY-3-CHLORO-PHENYL)-UREIDO]-HEXANOIC ACID P-TOLYLAMIDE] | 10 to 50
NCCCC[C@H](NC(=O)Nc1ccc(OCc2ccccc2)cc1)C(=O)NCc1ccco1 [Compound 302, (S)-6-AMINO-2-[3-(4-BENZYLOXY-PHENYL)-UREIDO]-HEXANOIC ACID (FURAN-2-YLMETHYL)-AMIDE] | > 50
Cc1ccc(NC(=O)[C@H](CCCCN)NC(=O)Nc2ccc(OCc3ccccc3)cc2)cc1C [Compound 254, (S)-6-AMINO-2-[3-(4-BENZYLOXY-PHENYL)-UREIDO]-HEXANOIC ACID (3,4-DIMETHYL-PHENYL)-AMIDE] | 10 to 50
Cc1ccc(NC(=O)C2CCCN2C(=O)OCC2c3ccccc3-c3ccccc32)cc1 [Compound 86, (R)-2-P-TOLYLCARBAMOYL-PYRROLIDINE-1-CARBOXYLIC ACID 9H-FLUOREN-9-YLMETHYL ESTER] | > 50
O=C(Nc1ccc(C2CCCCC2)cc1)C1CN(C(=O)OCC2c3ccccc3-c3ccccc32)CCN1 (stereo not drawn) [Compound 157, 3-(4-CYCLOHEXYL-PHENYLCARBAMOYL)-PIPERAZINE-1-CARBOXYLIC ACID 9H-FLUOREN-9-YLMETHYL ESTER] | > 50
